# Experimental data: a melting point compilation (Tetko et al.; mined from patent text by program, amines drawn as free bases though some values may be those of a salt)
row,Structure (SMILES),melting point [°C]
1,Cc1nn2c(=O)c(CCN3CCC(n4ccc5cc(F)ccc54)CC3)c(C)nc2s1,194
2,CN1CCC(C(=NNc2ccc(F)cc2)c2ccccc2F)CC1,125 to 126
3,Oc1ccc(Br)cc1C12CC3CC(CC(C3)C1)C2,140 to 141
4,CCOC(=O)/C=C/c1cnc(-c2ccc(OCc3ccccc3)c(C34CC5CC(CC(C5)C3)C4)c2)cn1,145 to 148
5,C=S1c2ccccc2N(CCN2CCOCC2)C(=O)C1c1ccc(Cl)cc1 (stereo not given),169 to 173
6,CS(=O)(=O)c1ccc(C(CC2CCCC2)C(=O)Nc2ncc(C(N)=O)s2)cc1 (stereo not given),155 to 160
7,O=C(Cn1cnc2cc(-c3ccc(Cl)cc3)sc2c1=O)c1ccc2c(c1)CCN(C(=O)C(F)(F)F)CC2,285 to 287
8,COC(=O)[C@H]1C=C(c2ccc(Br)cc2)OC(=O)[C@H]1Cc1ccccc1,139 to 141
9,CCn1c(N)c(C(=O)NC)c(=O)c2ccc(-c3ccc(NS(C)(=O)=O)cc3)nc21,> 300
10,CC(C)(C)c1ccc2c(C=O)c3ccccc3c(Cl)c2c1,143 to 147
11,CN1C(=O)C(C(=O)Nc2ccc(OC(F)(F)F)c(Cl)c2)C(=O)N(C)C1=O,160
12,O=C(OC1CCC1)N1CCC(c2nc3cc(-c4ccc(-n5cnnn5)cc4F)ccc3o2)CC1,165 to 169
13,Cc1ccc2c(c1Cl)C(=O)N(C(C)(C(N)=O)C(C)C)C2=O (stereo not given),215 to 218
14,CC1(C)CCC(C)(C)c2cc(CO)ccc21,74 to 75
15,CCCCCc1c(C(O)CC)nc(C(C)C)c(CO)c1-c1ccc(F)cc1 (stereo not given),89 to 90
16,CCCc1ccc(-c2ccc(C(=O)N3Cc4cccn4Cc4ccccc43)cc2)cc1,118 to 120
17,CCO[C@@H]1c2ccc3c(nc(C)n3C)c2O[C@H](c2ccccc2)[C@H]1O,222
18,Oc1ccc(C2CCOCC2)cc1,164
19,N#Cc1cc(F)c(-n2c(=O)cc(C(F)(F)F)[nH]c2=O)cc1Oc1cccc2c(O)cccc12,168
20,O=C1c2nccnc2C(=O)N1c1ccc(Cl)cn1,165
21,CC(C)[Si]1(C(C)C)C([Si](C)(C)C)=C(c2ccccc2)C(c2ccccc2)=C1[Si](C)(C)C,107
22,O=c1ccn(-c2ccc3[nH]c(=O)c(=O)[nH]c3c2)cc1,> 300
23,O=C(OCc1ccccc1)C1C(Sc2ccccc2)CC2CC(=O)N21 (stereo not given),84 to 85
24,CCOC(=O)C=Cc1ccc(OCCc2nc(-c3ccccc3)oc2C)cc1,114 to 115
25,CN(C)NC(=O)N(C)C1c2ccccc2Oc2ccccc21,120 to 123
26,CCn1c(Oc2cccc(N3CCC4(CC3)OCCO4)c2)nnc1[C@@H](C)NS(=O)(=O)c1ccc(Cl)c(Cl)c1,174 to 179
27,O=C(NCCC(=O)N1CCOCC1)c1ccc(-c2ccc3nnn(Cc4ccc5ncccc5c4)c3n2)cc1F,212 to 215
28,Cn1c(C#N)c(-c2ccc(F)cc2)c2cccnc2c1=O,231 to 232

# Now from value to molecule:
row,melting point [°C],Structure (SMILES)
1,100 to 102,Cc1ccc(C)c(SCCC(=O)O)c1
2,181 to 182,CCNC(=O)c1c(Br)ccc(OC)c1Cl
3,40 to 44,CCOC(=O)N1CC=C(c2cc(F)c(Br)cc2F)CC1
4,107 to 109,CON(C)C(=O)[C@@H](Cc1ccc(OCc2ccccc2)cc1)NC(=O)OC(C)(C)C
5,149 to 150,CCn1nnn(-c2cc(O)c(Cl)cc2Cl)c1=O
6,178 to 180,COc1cc2c(c3c1OC(C)(C)C3)C(c1cccc(C#N)c1)=NCC2(C)C
7,200 to 203,CCCc1cc(Cl)c2oc(C(=O)O)c(C)c2c1O
8,168,NS(=O)(=O)c1cncc([N+](=O)[O-])c1
9,116 to 118,CC(C)(O)c1ccc(S(N)(=O)=O)o1
10,101 to 102,COC(=O)c1cc(OC)c(O)cc1[N+](=O)[O-]
11,98 to 100,COC(=O)CCC(=O)c1ccc(SC(=O)N(C)C)cc1
12,198 to 200,O=C(Cl)c1ccc(S(=O)(=O)NC(=O)c2ccccc2Cl)cc1
